Tests used:
[1] = tested on: C57BL/6J mice; assay: Glucokinase activator in vivo screen (blood glucose after oral dosing); settings: administered orally, 50 mg/kg, C57BL/6J mice fasted two hours; decrease in blood glucose compared to vehicle over six hours (Example B)
Experimental: Glucokinase Activator In Vivo Screen Protocol
C57BL/6J mice are orally dosed via gavage with Glucokinase (GK) activator at 50 mg/kg body weight following a two hour fasting period. Blood glucose determinations are made five times during the six hour post-dose study period. Mice (n=6) are weighed and fasted for a two hour period prior to oral treatment.

Compound | glucokinase activator in vivo activity [1] | melting point
CS(=O)(=O)c1ccc(C(CC2CCCC2)C(=O)Nc2nccs2)cc1 (centres unmarked) [Example 3(A), 3-Cyclopentyl-2-(4-methanesulfonyl-phenyl)-N-thiazol-2-yl-propionamide] | excellent glucokinase activator in vivo activity | 
CS(=O)(=O)c1ccc(C(CC2CCCC2)C(=O)Nc2nccs2)cc1Cl (centres unmarked) [Example 12, 2-[3-Chloro-4-methanesulfonyl-phenyl]-3-cyclopentyl-N-thiazol-2-yl-propionamide] | excellent glucokinase activator in vivo activity | 
CS(=O)(=O)c1ccc([C@@H](CC2CCCC2)C(=O)Nc2nccs2)cc1 [Example 13, (2R)-3-Cyclopentyl-2-(4-methanesulfonylphenyl)-N-thiazol-2-yl-propionamide] | excellent glucokinase activator in vivo activity | 
Cc1ccc(NC(=O)C(CC2CCCC2)c2ccc(S(=O)(=O)C(F)(F)F)cc2)nc1 (centres unmarked) [Example 43(B)(b), 3-Cyclopentyl-N-(5-methyl-pyridin-2-yl)-2-(4-trifluoromethanesulfonyl-phenyl)-propionamide] | excellent glucokinase activator in vivo activity | 
COC(=O)c1ccc(NC(=O)C(CC2CCCC2)c2ccc(S(=O)(=O)C(F)(F)F)cc2)nc1 (centres unmarked) [Example 43(B)(c), 6-[3-Cyclopentyl-2-(4-trifluoromethanesulfonyl-phenyl)-propionylamino]-nicotinic acid methyl ester] | excellent glucokinase activator in vivo activity | 
COC(=O)c1ccc(NC(=O)[C@H](CC2CCCC2)c2ccc(Cl)c(Cl)c2)nc1 [Example 45, 6-[3-Cyclopentyl-2(R)-(3,4-dichloro-phenyl)-propionylamino]-nicotinic acid methyl ester] | excellent glucokinase activator in vivo activity | 
O=C(Nc1ccc(Cl)cn1)[C@H](CC1CCCC1)c1ccc(Cl)c(Cl)c1 [Example 54(A), N-(5-Chloro-pyridin-2-yl)-3-cyclopentyl-2(R)-(3,4-dichloro-phenyl)-propionamide] | excellent glucokinase activator in vivo activity | 
O=C(Nc1ccccn1)[C@H](CC1CCCC1)c1ccc(Cl)c(Cl)c1 [Example 54(B)(a), 3-Cyclopentyl-2(R)-(3,4-dichloro-phenyl)-N-pyridin-2-yl-propionamide] | excellent glucokinase activator in vivo activity | 
CS(=O)(=O)c1ccc(C(CC2CCCC2)C(=O)Nc2ccccn2)cc1Cl (centres unmarked) [Example 92, 2-(3-Chloro-4-methanesulfonyl-phenyl)-3-cyclopentyl-N-pyridin-2-yl-propionamide] | excellent glucokinase activator in vivo activity | 
CS(=O)(=O)c1ccc(C(CC2CCCC2)C(=O)Nc2ccc(Br)cn2)cc1Cl (centres unmarked) [Example 93, N-(5-Bromo-pyridin-2-yl)-2-(3-chloro-4-methanesulfonyl-phenyl)-3-cyclopentyl-propionamide] | excellent glucokinase activator in vivo activity | 
CS(=O)(=O)c1ccc([C@@H](CC2CCCC2)C(=O)Nc2ccc(Br)cn2)cc1Cl [Example 99, N-(5-Bromo-pyridin-2-yl)-2(R)-(3-chloro-4-methanesulfonyl-phenyl)-3-cyclopentyl-propionamide] | excellent glucokinase activator in vivo activity | 
O=C(Nc1ccc(CO)cn1)[C@H](CC1CCCC1)c1ccc(Cl)c(Cl)c1 [Example 106, 3-Cyclopentyl-2(R)-(3,4-dichloro-phenyl)-N-(5-hydroxymethyl-pyridin-2-yl)propionamide] | excellent glucokinase activator in vivo activity | 
CS(=O)(=O)c1ccc([C@@H](CC2CCCC2)C(=O)Nc2ncc(Br)s2)cc1 [Example 133, N-(5-Bromo-thiazol-2-yl)-3-cyclopentyl-2(R)-(4-methanesulfonyl-phenyl)-propionamide] | excellent glucokinase activator in vivo activity | 
Cc1csc(NC(=O)[C@H](CC2CCCC2)c2ccc(S(C)(=O)=O)c(Cl)c2)n1 [Example 139, 2(R)-(3-Chloro-4-methanesulfonyl-phenyl)-3-cyclopentyl-N-(4-methyl-thiazol-2-yl)-propionamide] | excellent glucokinase activator in vivo activity | 
Cc1ccc(NC(=O)[C@H](CC2CCCC2)c2ccc(S(C)(=O)=O)c(Cl)c2)nc1 [Example 140, 2(R)-(3-Chloro-4-methanesulfonyl-phenyl)-3-cyclopentyl-N-(5-methyl-pyridin-2-yl)-propionamide] | excellent glucokinase activator in vivo activity | 
CS(=O)(=O)c1ccc(C(CC2CCCC2)C(=O)Nc2ccncn2)cc1Cl (centres unmarked) [Example 141, 2-(3-Chloro-4-methanesulfonyl-phenyl)-3-cyclopentyl-N-pyrimidin-4-yl-propionamide] | excellent glucokinase activator in vivo activity | 

Compound | glucokinase activator in vivo activity [1] | melting point
CS(=O)(=O)c1ccc([C@@H](CC2CCCC2)C(=O)Nc2ccncn2)cc1Cl [Example 142, 2(R)-(3-Chloro-4-methanesulfonyl-phenyl)-3-cyclopentyl-N-pyrimidin-4-yl-propionamide] | excellent glucokinase activator in vivo activity | 
Cc1nccc(NC(=O)C(CC2CCCC2)c2ccc(S(C)(=O)=O)c(Cl)c2)n1 (centres unmarked) [Example 143, 2-(3-Chloro-4-methanesulfonyl-phenyl)-3-cyclopentyl-N-(2-methyl-pyrimidin-4-yl)-propionamide] | excellent glucokinase activator in vivo activity | 
Cc1nccc(NC(=O)[C@H](CC2CCCC2)c2ccc(S(C)(=O)=O)c(Cl)c2)n1 [Example 144, 2(R)-(3-Chloro-4-methanesulfonyl-phenyl)-3-cyclopentyl-N-(2-methyl-pyrimidin-4-yl)-propionamide] | excellent glucokinase activator in vivo activity | 
Cc1nccc(NC(=O)C(CC2CCCC2)c2ccc(S(C)(=O)=O)c(Br)c2)n1 (centres unmarked) [Example 148(B)(a), 2-(3-Bromo-4-methanesulfonyl-phenyl)-3-cyclopentyl-N-(2-methyl-pyrimidin-4-yl)-propionamide] | excellent glucokinase activator in vivo activity | 
CS(=O)(=O)c1ccc(C(CC2CCCC2)C(=O)Nc2cnccn2)cc1Br (centres unmarked) [Example 149, 2-(3-Bromo-4-methanesulfonyl-phenyl)-3-cyclopentyl-N-pyrazin-2-yl-propionamide] | excellent glucokinase activator in vivo activity | 
CS(=O)(=O)c1ccc(C(CC2CCCC2)C(=O)Nc2ccncn2)cc1C(F)(F)F (centres unmarked) [Example 155(B)(a), 3-Cyclopentyl-2-(4-methanesulfonyl-3-trifluoromethyl-phenyl)-N-pyrimidin-4-yl-propionamide] | excellent glucokinase activator in vivo activity | 
CS(=O)(=O)c1ccc(C(CC2CCCC2)C(=O)Nc2cnccn2)cc1C(F)(F)F (centres unmarked) [Example 155(B)(b), 3-Cyclopentyl-2-(4-methanesulfonyl-3-trifluoromethyl-phenyl)-N-pyrazin-2-yl-propionamide] | excellent glucokinase activator in vivo activity | 
CS(=O)(=O)c1ccc(C(CC2CCCC2)C(=O)Nc2ccc(Br)cn2)cc1C(F)(F)F (centres unmarked) [Example 156(A), N-(5-Bromo-pyridin-2-yl)-3-cyclopentyl-2-(4-methanesulfonyl-3-trifluoromethyl-phenyl)-propionamide] |  | 81 to 85 °C
CS(=O)(=O)c1ccc(C(CC2CCCC2)C(=O)Nc2ccncn2)cc1[N+](=O)[O-] (centres unmarked) [Example 158, 3-Cyclopentyl-2-(4-methanesulfonyl-3-nitro-phenyl)-N-pyrimidin-4-yl-propionamide] |  | 91 to 95 °C
Cc1nccc(NC(=O)C(CC2CCCC2)c2ccc(S(C)(=O)=O)c([N+](=O)[O-])c2)n1 (centres unmarked) [Example 159, 3-Cyclopentyl-2-(4-methanesulfonyl-3-nitro-phenyl)-N-(2-methyl-pyrimidin-4-yl)-propionamide] |  | 96 to 99 °C
CS(=O)(=O)c1ccc(C(CC2CCCC2)C(=O)Nc2cc[nH]c(=O)n2)cc1[N+](=O)[O-] (centres unmarked) [Example 160, 3-Cyclopentyl-2-(4-methanesulfonyl-3-nitro-phenyl)-N-(2-oxo-1,2-dihydro-pyrimidin-4-yl)-propionamide] |  | 256 to 258 °C (dec.)
CS(=O)(=O)c1ccc(C(CC2CCCC2)C(=O)Nc2cnccn2)cc1[N+](=O)[O-] (centres unmarked) [Example 161, 3-Cyclopentyl-2-(4-methanesulfonyl-3-nitro-phenyl)-N-pyrazin-2-yl-propionamide] |  | 104 to 108 °C
CS(=O)(=O)c1ccc(C(CC2CCCC2)C(=O)Nc2ncc[nH]2)cc1[N+](=O)[O-] (centres unmarked) [Example 162, 3-Cyclopentyl-N-(1 H-imidazol-2-yl)-2-(4-methanesulfonyl-3-nitro-phenyl)-propionamide] |  | 243 to 244 °C
O=C(Nc1ccc(Br)cn1)C(CC1CCCC1)c1ccc(Cl)c([N+](=O)[O-])c1 (centres unmarked) [Example 164, N-(5-Bromo-pyridin-2-yl)-2-(4-chloro-3-nitro-phenyl)-3-cyclopentyl-propionamide] |  | 128 to 130 °C
O=C(Nc1ccncn1)C(CC1CCCC1)c1cccc(C(F)(F)F)c1 (centres unmarked) [Example 165(A), 3-Cyclopentyl-N-pyrimidin-4-yl-2-(3-trifluoromethyl-phenyl)-propionamide] |  | 113 to 115 °C
O=C(Nc1ccc([N+](=O)[O-])cn1)C(CC1CCCC1)c1ccc(F)c(C(F)(F)F)c1 (centres unmarked) [Example 167(A), 3-Cyclopentyl-2-(4-fluoro-3-trifluoromethyl-phenyl)-N-(5-nitro-pyridin-2-yl)-propionamide] |  | 121 to 122 °C

— patent publication US6610846B1, “Heteroaromatic glucokinase activators” (Hoffman-La Roche Inc., priority 1999, dated 2003)
